Assay results: patent US20220275403A1, “Methods And Compositions For Enhancing AAV-Mediated Homologous Recombination Using Ribonucleotide Reductase Inhibitors” (The Board of Trustees of the Leland Stanford Junior …, priority 2019, published 2022)
“Also recorded” adds a separate entry of the source.

Legend:
[1] = test system: genomic albumin (Alb) locus, mouse liver; test: In vivo gene targeting with rAAV8 Alb-P2A-hF9 vector, serum hF9 by ELISA; conditions: for serum hF9 levels: 2 months after AAV injection; for hF9 expression (plasma/serum hF9 levels): mice, drug ip three sequential days, rAAV8 Alb/F9 on first day, vs controls; for serum hF9 protein levels: vs vehicle
Procedure: FIG. 5 Depicts results from in vivo delivery of AAV-based HR in mice. A schematic depicts the injection schedule. rAAV was used to deliver a donor sequence encoding human coagulation factor IX (hF9) into the genomic Albumin (Alb) locus. Plasma hF9 expression in the mouse liver was measured as an assay to detect integration and expression of the integrated donor sequence. […] Experimental plan and time schedule: each drug was given three sequential days by ip injection and AAV was injected at first day with 1e11 vector genome (vg)/g body weight. Serum samples were collected at each time point and hF9 levels were measured by ELISA. Body weight of each mouse were measured to monitor the toxic effect of each drug.
The efficacy of RNR inhibitors in vivo was tested using an AAV8 vector that incorporates a Alb/F9 targeting sequence. The “Alb/F9” targeting vector was an AAV that included a donor DNA having a nucleotide sequence of interest flanked by homology arms that facilitated integration of the sequence of interest into the genomic albumin (Alb) locus. The nucleotide sequence of interest in this case was a 2A peptide sequence 5′ of a sequence encoding human coagulation factor IX (hF9). Thus, once integrated into the genomic locus, the 2A peptide sequence was present between the endogenous albumin coding sequence and the introduced/integrated hF9 coding sequence such that expression of hF9 mRNA was under the control of the albumin promoter but translation of the transcript led to two separate proteins (albumin and hF9). […] Thus, the lack of efficacy observed based on hF9 liver expression (see FIG. 5) is likely due to low/substantially no HU in the liver (FIG. 6). Given the in vitro HU results and the in vitro and in vivo fludarabine results—in addition to the gemcitabine results of FIG. 7, it is likely and expected that AAV-based HR is enhanced in vivo by HU in organs/tissues other than the liver (e.g., kidney, spleen, heart, lung, testes, brain, etc.).
B6 mice were received tail vain injections of rAAV8 packaging each vector at the designated dose and were bled at indicated time points. Body weight of mice were measured using Scout pro portable scale (Ohaus) at indicated time points. Serum samples were obtained by centrifuge at 10,000 rpm for 10 minutes and used for ELISA assay of hF9. Hydroxyurea or fludarabine was resuspended in PBS and were injected intraperitoneally with indicated dose/regimen. For BrdU labeling of proliferating mice hepatocytes, BrdU was resuspended in PBS and were intraperitoneally injected for indicated time periods at 200 mg/kg per day for 3 days or 7 days. Diethylnitrosamine solution was prepared using saline and was also intraperitoneally injected for 3 days at 10 or 30 mg/kg. At the end of experiments, mice were anesthetized with isoflurane and perfused transcardially with PBS and then liver tissues were quickly harvested and cut into several pieces. The tissues for mRNA extractions were immediately submerged in RNAlater solution (Sigma) and stored at 4° C. until use. For gDNA or protein extraction, tissues were snap-frozen in liquid nitrogen and stored at −80° C. until use.
(§1) Mice serum samples were used to quantify hF9 protein expression levels. ELISA for hF9 was performed as previously described with the following antibodies: mouse anti-hF9 IgG primary antibody at 1:1,000 (Sigma Cat#F2645), and polyclonal goat anti-hF9 peroxidase-conjugated IgG secondary antibody at 1:4,000 (Enzyme Research Cat#GAFIX-APHRP).

[2] = test system: Albumin gene locus, mouse hepatocytes; test: CRISPR/Cas9-mediated gene editing in vivo, SaCas9-sgRNA8 plus rAAV8-Alb-P2A-GFP, GFP staining of liver; conditions: vs PBS, Alb-P2A-GFP 6.0×10^12 or 3.0×10^13 vg/kg, 2 weeks after AAV injection
P Ser139 γH2AX = P Ser139 γH2AX DNA damage response in mouse liver (IHC, Western blot)
murine ApoE locus = test: In vivo gene targeting with rAAV8-ApoE-P2A-hF9 vector, serum hF9; design: species or system mouse; conditions: vs PBS
Procedure: Serum was collected at various times across a nearly 60-day time course and hF9 protein levels were determined. Error bars represent s.e.; n=4
Also examined was whether fludarabine-mediated enhancement of gene targeting was Albumin specific—this was done by designing a vector targeting an alternative genomic locus, ApoE. ApoE is highly and specifically expressed in hepatocytes, similar to Albumin. When 1.0×10^11 vg/mouse of this vector (ApoE-P2A-hF9) was injected with fludarabine treatment, a significant increase in hF9 expression compared to PBS-injected mice was observed (FIG. 12). The fold-increase (3.6-fold at day 54) was similar to findings targeting the Albumin locus.
as §1

hepatocytes = test: BrdU incorporation in mouse liver (hepatocyte proliferation); format: in vivo
Huh7 cells = test: AAV-HR efficiency, AAV-DJ GAPDH/GFP targeting vector, GFP positive cells by FACS; format: cell-based, human; conditions: for HR efficiency (GFP positive population by FACS analysis) / AAV-HR efficiency (GFP positive fraction): Huh7; for HR efficiency (GFP positive population by FACS analysis): AAV-DJ GAPDH targeting vector; for AAV-HR efficiency (GFP positive fraction): FIG. 7, drug pretreatment 16 hours, washed out, FACS 14 days after infection
hepatocytes of mice = test: RNAscope in situ hybridization of hF9 mRNA in liver sections; format: in vivo; conditions: vs PBS treated mouse
mouse liver = test: qPCR of liver DNA and mRNA after Alb-P2A-hF9 vector injection
[3] = Body weight of treated mice; conditions: for body weight: mice, drug ip three sequential days plus rAAV8 Alb/F9, relative to controls

In the case of Nc1nc(F)nc2c1ncn2[C@@H]1O[C@H](CO)[C@@H](O)[C@@H]1O [Fludarabine, (2R,3S,4S,5R)-2-(6-amino-2-fluoropurin-9-yl)-5-(hydroxymethyl)oxolane-3,4-diol], the “serum hF9 levels” value ([1]; Flu 125 mg/kg i.p. 3 times per day for five days, vs PBS) is reported as 6.4 fold, the “hF9 expression / gene targeting efficiency with delayed dose” value ([1]; fludarabine 125 mg/kg i.p. three times per day on days 28-30 after rAAV, serum day 54) is reported as “little to no effect; also recorded: failed to increase the efficiency of gene targeting” and the “hF9 expression (plasma/serum hF9 levels)” value [1] is reported as “increased hF9 expression”. For the same molecule, the “hF9 expression (plasma/serum hF9 levels)” value ([1]; listed as fludarabine) was “significantly and consistently increased serum hF9 levels”, the “serum hF9 levels” value ([1]; single administration (1 day) of fludarabine) was “about 2 fold” and the “number of GFP positive hepatocytes” value [2] was “increased the efficiency of CRISPR/Cas9-mediated gene editing”. For the same molecule, the “number of GFP positive hepatocytes” value ([2]; listed as fludarabine) was “increase of the number of GFP positive hepatocytes”, the “γH2AX in liver tissue lysates (Western blotting)” value (P Ser139 γH2AX; acute phase of fludarabine treatment) was “strong detection of γH2AX” and the “γH2AX foci in liver (IHC)” value (P Ser139 γH2AX; three-day washout after fludarabine, vs immediately proximal to treatment) was “significantly reduced”. For the same molecule, the “γH2AX foci in liver (IHC)” value (P Ser139 γH2AX; time proximate to fludarabine treatment) was “widespread nuclear localized γH2AX foci”, the “fold-increase in hF9 expression” value (murine ApoE locus; ApoE-P2A-hF9 1.0×10^11 vg/mouse, day 54) was 3.6 fold and the “efficiency of gene targeting at the ApoE locus (serum hF9)” value (murine ApoE locus; nearly 60-day time course) was “increased the efficiency of gene targeting at the ApoE locus”. For the same molecule, the “BrdU incorporation in liver” value (hepatocytes; BrdU for three days in washout phase after fludarabine, vs acute phase) was “significantly greater”, the “BrdU labeled nuclei in liver sections” value (hepatocytes; BrdU given during fludarabine 125 mg/kg three times per day for three days (acute phase)) was “nearly absent” and the “AAV-HR efficiency in cultured cells” value (Huh7 cells; FIG. 4, Hun7 cells) was “significantly enhanced AAV-HR efficiency”. The “increase in HR efficiency” value (Huh7 cells; FIG. 4, vs no RNR inhibitor) was 3.5 fold, the “HR efficiency (GFP positive population by FACS analysis)” value (Huh7 cells) was “reproducibly increased HR efficiency” and the “frequency of hF9 mRNA positive cells” value (hepatocytes of mice) was “increased the number of hF9 positive hepatocytes”. For the same molecule, the “frequency of hF9 mRNA positive cells” value (hepatocytes of mice; listed as fludarabine) was “clearly more frequent”, the endogenous albumin expression (mouse liver; liver mRNA, fludarabine treatment) was “not changed” and the “on-target integrated Alb-P2A-hF9 fusion mRNA expression” value (mouse liver; liver, vs PBS, normalized to Actb) was 5.1 fold. For the same molecule, the “total hF9 mRNA” value (mouse liver; liver, vs controls, vector-internal primer set) was 4.4 fold, the body weight [3] was “without any body weight change” and the body weight ([3]; listed as fludarabine) was “without any body weight loss”.
With NC(=O)NO [Hydroxyurea, hydroxyurea] the “hF9 expression (plasma/serum hF9 levels)” value [1] was “did not exhibit enhancement of hF9 expression”.
With CCN(CC)N=O [DEN, diethylnitrosamine] the “serum hF9 protein levels” value ([1]; DEN 10 mg/kg, not statistically significant) was about 1.5 fold, the “serum hF9 protein levels” value ([1]; DEN 30 mg/kg, three weeks post rAAV injection) was “about 3.6 fold” and the “γH2AX staining of liver sections (IHC)” value (P Ser139 γH2AX; DEN-treated mice, positive control) was “intense nuclear staining of γH2AX”. The “endogenous albumin mRNA expression” value (mouse liver; DEN 10 or 30 mg/kg, liver) was “nearly unchanged”, the “total hF9 mRNA expression” value (mouse liver; DEN high dose (30 mg/kg), liver, vs vehicle) was 3.9 fold and the “total hF9 mRNA expression” value (mouse liver; DEN low dose (10 mg/kg), liver, vs vehicle) was 2 fold. The “on-target HR derived fusion Alb-P2A-hF9 mRNA” value (mouse liver; DEN, both dose groups, liver, vs vehicle) was “about 2 fold” and the body weight gains ([3]; DEN 10 or 30 mg/kg i.p. once per day for three days, vs vehicle, dose-dependent) was “decreased body weight gains”.
In the case of COc1cc([C@@H]2c3cc4c(cc3[C@@H](O[C@@H]3O[C@@H]5CO[C@@H](c6cccs6)O[C@H]5[C@H](O)[C@H]3O)[C@H]3COC(=O)[C@H]23)OCO4)cc(OC)c1O [Teniposide, teniposide], the “AAV-HR efficiency (GFP positive fraction)” value (Huh7 cells) is reported as “no effect” and the “HR efficiency (GFP positive population by FACS analysis)” value (Huh7 cells) is reported as “no effect”.
In the case of Nc1ccn([C@@H]2O[C@H](CO)[C@@H](O)C2(F)F)c(=O)n1 [Gemcitabine], the “AAV-HR efficiency (GFP positive fraction)” value (Huh7 cells) is reported as “enhanced AAV-HR efficiency” and the “HR efficiency (GFP positive population by FACS analysis)” value (Huh7 cells) is reported as “reproducibly increased HR efficiency”.
